Data taken from paper PMC8217550, “ERRγ enhances cardiac maturation with T-tubule formation in human iPSC-derived cardiomyocytes” (Nature Communications, 2021).

Molecular target: T1, estrogen-related receptor gamma (ERRγ) (Homo sapiens, UniProt P62508)
T1 construct: gene ESRRG; His-tagged ERRγ LBD
T1 sequence (P62508 233-458 limits assumed): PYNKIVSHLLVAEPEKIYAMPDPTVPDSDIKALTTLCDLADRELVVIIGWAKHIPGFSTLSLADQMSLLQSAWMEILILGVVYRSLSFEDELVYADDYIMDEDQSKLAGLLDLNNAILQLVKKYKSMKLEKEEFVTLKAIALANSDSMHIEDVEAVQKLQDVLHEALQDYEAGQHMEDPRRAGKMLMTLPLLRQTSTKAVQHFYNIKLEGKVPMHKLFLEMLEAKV
T1 sequence (Q9UBK2 1-798 partner): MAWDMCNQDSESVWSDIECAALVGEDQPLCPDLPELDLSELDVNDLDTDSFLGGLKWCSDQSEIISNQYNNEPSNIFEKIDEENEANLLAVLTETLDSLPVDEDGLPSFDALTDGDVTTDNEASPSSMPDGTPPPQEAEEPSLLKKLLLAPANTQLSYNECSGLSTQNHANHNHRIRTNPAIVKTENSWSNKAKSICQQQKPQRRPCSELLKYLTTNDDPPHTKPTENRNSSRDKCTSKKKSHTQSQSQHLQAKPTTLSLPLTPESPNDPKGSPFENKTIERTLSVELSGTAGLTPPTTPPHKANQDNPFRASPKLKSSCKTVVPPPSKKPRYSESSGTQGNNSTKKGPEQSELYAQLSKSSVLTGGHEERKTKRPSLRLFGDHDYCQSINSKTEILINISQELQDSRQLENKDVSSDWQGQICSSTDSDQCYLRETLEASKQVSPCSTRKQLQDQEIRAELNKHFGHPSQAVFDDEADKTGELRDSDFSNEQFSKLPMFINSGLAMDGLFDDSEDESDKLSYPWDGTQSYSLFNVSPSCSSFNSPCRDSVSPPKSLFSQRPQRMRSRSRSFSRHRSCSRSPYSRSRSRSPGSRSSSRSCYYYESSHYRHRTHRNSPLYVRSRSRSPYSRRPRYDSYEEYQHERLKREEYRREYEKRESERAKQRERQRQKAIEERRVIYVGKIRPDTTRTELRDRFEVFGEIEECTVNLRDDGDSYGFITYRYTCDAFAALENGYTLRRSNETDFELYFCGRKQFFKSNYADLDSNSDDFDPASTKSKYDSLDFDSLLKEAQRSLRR
Assay: LanthaScreen TR-FRET PGC1a coactivator-binding assay (agonist)
Format: biochemical

Q: Which “LanthaScreen TR-FRET PGC1a coactivator-binding assay (agonist)” value does the source give for `O=C1c2ccc(N3CCOCC3)cc2CN1c1ccc2[nH]c(-c3ccc(Br)cc3)nc2c1` [T112, 2-[2-(4-bromophenyl)-1H-benzimidazol-5-yl]-5-(morpholin-4-yl)-2,3-dihydro-1H-isoindol-1-one] here?
A: to have ERRγ-agonistic activity with stronger effects than the commercially available ERRγ agonist GSK4716
